Source: patent US12471596B2 (priority 2019, dated 2025)

Experiments:
[1] = tested on: Phytophthora infestans; assay: microbe, parasite or virus in culture; format: cell-based; details: in Secale cereale, 168 h, read-out: control compared to the untreated check
[2] = tested on: Phytophthora infestans; assay: whole plant or invertebrate; format: in vivo, Phytophthora infestans on tomato plants; details: in Solanum lycopersicum, 24 h, read-out: control compared to the untreated check

| Compound | inhibition of growth at 30 ppm [1] | pest or weed control at 50 ppm [2] |
| --- | --- | --- |
| O=C(COc1ccnc(C(F)(F)F)n1)N1CCC(c2nc(C3=NOC(c4c(Cl)cccc4C(F)(F)F)C3)cs2)CC1 (centres unmarked) [Compound 18, 1-(4-(4-(5-(2-chloro-6-(trifluoromethyl)phenyl)-4,5-dihydroisoxazol-3-yl)thiazol-2-yl)piperidin-1-yl)-2-((2-(trifluoromethyl)pyrimidin-4-yl)oxy)ethan-1-one] | ≥ 70% | ≥ 70% |
| COc1nccnc1OCC(=O)N1CCC(c2nc(C3=NOC(c4c(F)cccc4Cl)C3)cs2)CC1 (centres unmarked) [Compound 25, 1-(4-(4-(5-(2-chloro-6-fluorophenyl)-4,5-dihydroisoxazol-3-yl)thiazol-2-yl)piperidin-1-yl)-2-((3-methoxypyrazin-2-yl)oxy)ethan-1-one] | ≥ 70% | ≥ 70% |
| COc1nccnc1OCC(=O)N1CCC(c2nc(C3=NOC(c4c(Cl)cccc4C#N)C3)cs2)CC1 (centres unmarked) [Compound 26, 3-chloro-2-(3-(2-(1-(2-((3-methoxypyrazin-2-yl)oxy)acetyl)piperidin-4-yl)thiazol-4-yl)-4,5-dihydroisoxazol-5-yl)benzonitrile] | ≥ 70% | ≥ 70% |
| COc1nccnc1OCC(=O)N1CCC(c2nc(C3=NOC(c4c(F)cccc4F)C3)cs2)CC1 (centres unmarked) [Compound 27, 1-(4-(4-(5-(2,6-difluorophenyl)-4,5-dihydroisoxazol-3-yl)thiazol-2-yl)piperidin-1-yl)-2-((3-methoxypyrazin-2-yl)oxy)ethan-1-one] | ≥ 70% | ≥ 70% |
| COc1nccnc1OCC(=O)N1CCC(c2nc(C3=NOC(c4c(F)cccc4Br)C3)cs2)CC1 (centres unmarked) [Compound 28, 1-(4-(4-(5-(2-bromo-6-fluorophenyl)-4,5-dihydroisoxazol-3-yl)thiazol-2-yl)piperidin-1-yl)-2-((3-methoxypyrazin-2-yl)oxy)ethan-1-one] | ≥ 70% | ≥ 70% |
| COc1nccnc1OCC(=O)N1CCC(c2nc(C3=NOC(c4c(Cl)cccc4OS(C)(=O)=O)C3)cs2)CC1 (centres unmarked) [Compound 29, 3-chloro-2-(3-(2-(1-(2-((3-methoxypyrazin-2-yl)oxy)acetyl)piperidin-4-yl)thiazol-4-yl)-4,5-dihydroisoxazol-5-yl)phenyl methanesulfonate] | ≥ 70% | ≥ 70% |
| COc1ccnc(OCC(=O)N2CCC(c3nc(C4=NOC(c5c(Cl)cccc5C#N)C4)cs3)CC2)n1 (centres unmarked) [Compound 31, 3-chloro-2-(3-(2-(1-(2-((4-methoxypyrimidin-2-yl)oxy)acetyl)piperidin-4-yl)thiazol-4-yl)-4,5-dihydroisoxazol-5-yl)benzonitrile] | ≥ 70% | ≥ 70% |
| COc1ccnc(OCC(=O)N2CCC(c3nc(C4=NOC(c5c(Cl)cccc5OS(C)(=O)=O)C4)cs3)CC2)n1 (centres unmarked) [Compound 32, 3-chloro-2-(3-(2-(1-(2-((4-methoxypyrimidin-2-yl)oxy)acetyl)piperidin-4-yl)thiazol-4-yl)-4,5-dihydroisoxazol-5-yl)phenyl methanesulfonate] | ≥ 70% | ≥ 70% |
| COc1ccnc(OCC(=O)N2CCC(c3nc(C4=NOC(c5c(Cl)cccc5Cl)C4)cs3)CC2)n1 (centres unmarked) [Compound 33, 1-(4-(4-(5-(2,6-dichlorophenyl)-4,5-dihydroisoxazol-3-yl)thiazol-2-yl)piperidin-1-yl)-2-((4-methoxypyrimidin-2-yl)oxy)ethan-1-one] | ≥ 70% | ≥ 70% |
| COc1ccnc(OCC(=O)N2CCC(c3nc(C4=NOC(c5c(F)cccc5Cl)C4)cs3)CC2)n1 (centres unmarked) [Compound 34, 1-(4-(4-(5-(2-chloro-6-fluorophenyl)-4,5-dihydroisoxazol-3-yl)thiazol-2-yl)piperidin-1-yl)-2-((4-methoxypyrimidin-2-yl)oxy)ethan-1-one] | ≥ 70% | ≥ 70% |
